Measurements from patent US20110038957A1, “NOVEL NUTRACEUTICAL COMPOSITIONS CONTAINING STEVIA EXTRACT OR STEVIA EXTRACT CONSTITUENTS AND USES THEREOF” (priority 2007, published 2011).
Read-outs that look alike come from different tables or passages of the source.

Tests used:
[1] = test system: GluR1 (cell surface presence of AMPA receptor 1); experiment: Hippocampal slice cultures, immunohistochemistry of synaptic marker GluR1; format: cell-based, Wistar rats; parameters: key to GluR1, relative activation of synaptic marker: ++++ shows a qualitative maximal activation; ++ and + signify a half-maximum and a moderate activation, respectively; ++ and + signify a half-maximum and a moderate activation, respectively; ± indicates no change in immunoreactivity; conditions: 15 min treatment after 48 h in culture; vs sister cultures treated with buffer
Protocol: (§1) Seven-day-old Wistar rats were decapitated using a guillotine. In less than 1 minute the skull was opened, the cerebral hemispheres were separated and transferred and both hippocampi were dissected and transferred into ice-cold buffer containing 137 mM NaCl, 5 mM KCl, 0.85 mM Na2HPO4, 1.5 mM CaCl2, 0.66 mM KH2PO4, 0.28 mM MgSO4, 1 mM MgCl2, 2.7 mM NaHCO3, 1 mM Kynurenic acid and 0.6% D-glucose. Transverse hippocampal slices (400 μm) were prepared using a vibrating blade microtome (VT1200S; Leica Microsystems (Schweiz) AG, Heerbrugg, Switzerland) in the same buffer. Hippocampal slices were individually placed on membrane inserts (Millicell Culture Plate Inserts, 0.4 μm) and cultivated at 35° C., 5% CO2, 95% humidity in a medium containing a 1:1 mixture of BME and MEM (both from Invitrogen) containing 25% heat-inactivated horse serum, 1× GlutaMAX, 1× Penicillin/Streptomycin, 0.6% glucose and 1 mM Kynurenic acid (Stoppini 1991 J. Neurosci. Methods 37(2):173-82). After 48 h in culture, synaptic NMDA receptors were activated by addition of Stevia extract, its major constituents or control substances for 15 min in 140 mM NaCl, 5 mM KCl, 1.3 mM CaCl2, 25 mM HEPES (pH 7.3), 33 mM D-glucose and 0.02 mM bicuculline methiodide. […] An additional positive control comprised the addition of 200 μM glycine to sister cultures. After the treatments, sections were washed and fixed for immunohistochemistry. Markers of enhanced synaptic activity, normally associated with long-term potentiation, representing an ex vivo model of learning and memory were quantitated (see Table 3, below). Treatment of hippocampal cultures with Stevia extract, steviol, isosteviol and stevioside induced one or more biochemical markers typical for LTP (pCREB: activated form of the cAMP response element binding protein; pMAPK: activated form of the mitogen-activated protein kinase; […]

[2] = test system: pCREB (activated form of the cAMP response element binding protein); experiment: Hippocampal slice cultures, immunohistochemistry of synaptic marker pCREB; format: cell-based, Wistar rats; parameters: key: ++++ shows a qualitative maximal activation; ++ and + signify a half-maximum and a moderate activation, respectively; ++ and + signify a half-maximum and a moderate activation, respectively; ± indicates no change in immunoreactivity; conditions: 15 min treatment after 48 h in culture; vs sister cultures treated with buffer
Protocol: as §1

[3] = biological target: T1, human glycine transporter 1b (GlyT1) (Homo sapiens, UniProt P48067); experiment: Inhibition of glycine transporter 1 in a cellular assay ([3H]-glycine uptake into CHO cells); format: cell-based; conditions: pure compounds, CHO cells expressing GlyT1, 60 nM [3H]-glycine, 30 minutes, room temperature; for IC50: read-out: IC50 for tritiated glycine uptake
T1 construct: expressed in transfected cells
T1 sequence (P48067 1-652 isoform P48067-3): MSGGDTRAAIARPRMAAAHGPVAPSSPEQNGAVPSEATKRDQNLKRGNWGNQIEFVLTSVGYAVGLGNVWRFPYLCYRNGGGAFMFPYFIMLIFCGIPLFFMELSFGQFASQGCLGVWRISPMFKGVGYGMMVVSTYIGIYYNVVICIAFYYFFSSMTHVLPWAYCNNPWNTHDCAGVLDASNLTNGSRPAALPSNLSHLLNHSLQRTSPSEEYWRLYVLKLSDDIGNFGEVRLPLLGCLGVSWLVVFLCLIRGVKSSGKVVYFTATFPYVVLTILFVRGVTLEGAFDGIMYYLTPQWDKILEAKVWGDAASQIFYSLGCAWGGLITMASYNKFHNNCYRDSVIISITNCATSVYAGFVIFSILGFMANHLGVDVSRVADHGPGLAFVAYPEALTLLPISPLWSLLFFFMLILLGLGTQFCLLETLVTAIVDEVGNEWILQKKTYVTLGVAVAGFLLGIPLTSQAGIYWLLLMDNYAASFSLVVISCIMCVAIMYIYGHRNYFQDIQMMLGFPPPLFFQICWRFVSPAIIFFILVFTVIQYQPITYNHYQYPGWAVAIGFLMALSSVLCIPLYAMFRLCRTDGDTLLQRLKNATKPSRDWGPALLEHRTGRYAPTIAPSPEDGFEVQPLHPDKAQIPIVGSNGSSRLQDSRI
Protocol: CHO cells stably expressing the human glycine transporter 1b cDNA (GlyT1) were routinely grown in Dulbecco's Modified Eagle's Medium (Invitrogen, Carlsbad, USA) containing 10% dialysed foetal calf serum, penicillin, streptomycin, proline and the antibiotic G418. Cells were harvested by trypsinisation one day prior to the assay and were seeded in the above mentioned medium. Immediately prior to the assay, the medium was replaced by uptake buffer containing 150 mM NaCl, 1 mM CaCl2, 2.5 mM KCl, 2.5 mM MgCl2, 10 mM Glucose and 10 mM N-2-hydroxyethylpiperazine-N′-2-ethanesulfonic acid (HEPES buffer).
Glycine uptake into the cells was determined by addition of 60 nM radio-labelled [^3H]-glycine (Amersham Biosciences GE Healthcare, Slough, UK) and incubation for 30 minutes at room temperature. Following removal of unincorporated label by gentle washing three times with the above buffer, incorporated glycine was quantified by liquid scintillation counting.

[4] = test system: pMAPK (activated form of the mitogen-activated protein kinase); experiment: Hippocampal slice cultures, immunohistochemistry of synaptic marker pMAPK; format: cell-based, Wistar rats; parameters: key: ++++ shows a qualitative maximal activation; ++ and + signify a half-maximum and a moderate activation, respectively; ++ and + signify a half-maximum and a moderate activation, respectively; ± indicates no change in immunoreactivity; conditions: 15 min treatment after 48 h in culture; vs sister cultures treated with buffer
Protocol: as §1

NMDA receptor [5] = conditions: mouse hippocampal slice, Schaffer collateral stimulation (Bergeron et al 1998); cited from earlier work
adult mice [6] = conditions: systemic administration, adult mice (Kinney et al 2003); cited from earlier work
NMDA receptor [7] = conditions: rat hippocampal slice, Schaffer collateral stimulation (Bergeron et al 1998); cited from earlier work
adult mice [8] = conditions: systemic administration (Kinney et al 2003); cited from earlier work

Question: With `C=C1C[C@@]23CC[C@H]4[C@@](C)(CCC[C@@]4(C)C(=O)O[C@@H]4O[C@H](CO)[C@@H](O)[C@H](O)[C@H]4O)[C@@H]2CC[C@]1(O[C@@H]1O[C@H](CO)[C@@H](O)[C@H](O)[C@H]1O[C@@H]1O[C@H](CO)[C@@H](O)[C@H](O)[C@H]1O)C3` [Stevioside] as the compound, how does the “GluR1, relative activation of synaptic marker” value [1] read?
Answer: ±

Question: What about the “pCREB, relative activation of synaptic marker” value [2] of the same compound?
Answer: ±

Question: And the “IC50 for tritiated glycine uptake” value [3]?
Answer: inactive

Question: And the “pMAPK, relative activation of synaptic marker” value [4]?
Answer: ++

Question: Which “NMDA receptor responses in CA1 pyramidal cells” value (NMDA receptor [5]) does the source give for `CN(CCC(Oc1ccc(-c2ccccc2)cc1)c1ccc(F)cc1)CC(=O)O` (stereo not shown) [NFPS, N-[3-(4′-fluorophenyl)-3-(4′-phenylphenoxy)] propylsarcosine] here?
Answer: enhanced NMDA receptor responses in CA1 pyramidal cells were observed

Question: What about the “Prepulse inhibition of the acoustic startle response” value (adult mice [6]) of the same compound?
Answer: enhanced prepulse inhibition of the acoustic startle response

Question: What about the “NMDA receptor responses in CA1 pyramidal cells” value (NMDA receptor [7]) of the same compound?
Answer: enhanced NMDA receptor responses in CA1 pyramidal cells were observed

Question: And the “LTP in the dentate gyrus” value (adult mice [8])?
Answer: increased LTP in the dentate gyrus

Question: With `C=C1C[C@@]23CC[C@H]4[C@@](C)(CCC[C@@]4(C)C(=O)O)[C@@H]2CC[C@]1(O)C3` [Steviol] as the compound, how does the “GluR1, percentage increase of control values” [1] read?
Answer: 340%

Question: And the “pCREB, relative activation of synaptic marker” value [2]?
Answer: ++

Question: What about the “IC50 for tritiated glycine uptake” value [3] of the same compound?
Answer: inactive

Question: And the “pMAPK, relative activation of synaptic marker” value [4]?
Answer: ±

Question: What does the source list for Isosteviol?
Answer: GluR1, percentage increase of control values [1]: 361%; pCREB, relative activation of synaptic marker [2]: +; IC50 for tritiated glycine uptake [3]: inactive; pMAPK, relative activation of synaptic marker [4]: ±

Question: What does the source list for `C=C1C[C@@]23CC[C@H]4[C@@](C)(CCC[C@@]4(C)C(=O)O[C@@H]4O[C@H](CO)[C@@H](O)[C@H](O)[C@H]4O)[C@@H]2CC[C@]1(O[C@@H]1O[C@H](CO)[C@@H](O)[C@H](O[C@@H]2O[C@H](CO)[C@@H](O)[C@H](O)[C@H]2O)[C@H]1O[C@@H]1O[C@H](CO)[C@@H](O)[C@H](O)[C@H]1O)C3` [Rebaudioside A]?
Answer: GluR1, relative activation of synaptic marker [1]: ±; pCREB, relative activation of synaptic marker [2]: ±; IC50 for tritiated glycine uptake [3]: inactive; pMAPK, relative activation of synaptic marker [4]: ±

Question: For `CN(CC[C@@H](Oc1ccc(C(F)(F)F)cc1)c1ccccc1)CC(=O)O` [ORG24598, reference compound], which IC50 [3] is on record?
Answer: 0.02 µM

Question: Which IC50 [3] does the source give for `CNCC(=O)O` [Sarcosine, reference compound] here?
Answer: 35.9 µM
